The record followed here is EP4790048A1, “S1PR4 REGULATOR COMPOUND FOR AUTOIMMUNE DISEASE TREATMENT AND APPLICATION THEREOF” (Shengyuan Zetong (Shanghai) Pharmaceutical Co., Ltd, priority 2023, dated 2025).

By EC50 is commonly meant the midpoint of the concentration-response curve.

The target of one experiment is T1, hS1P1 (Homo sapiens, UniProt P21453).
T1 construct: expressed in transfected cells; host or cells: CHO
Kind of experiment: Tango β-arrestin recruitment luciferase assay, Tango-hS1P1-CHO. The format is cell-based. The conditions noted are these: S1PR1; Tango-S1PR1-CHO-K1 cells; mean ± SD; read-out: EC50. An outline of the steps: (§1)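 CHO Tango cells (receptor–V2 tail–TEV/tTA fusion, β-arrestin 2–TEV, UAS-luciferase reporter) plated overnight (20 h) at 37°C, then treated 20 h with compounds, top final 45 µM, 9 five-fold dilutions, triplicates. Luciferase luminescence read; BAF-312 positive control at 1 µM (S1PR1) or 25 µM (S1PR4).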
(In general: Recruitment of arrestin is a read-out of receptor activation apart from second messengers.)

Experiment [1] has as its target T2, hS1P4 (Homo sapiens, UniProt O95977).
T2 construct: expressed in transfected cells; host or cells: CHO
T2 sequence (O95977 1-384): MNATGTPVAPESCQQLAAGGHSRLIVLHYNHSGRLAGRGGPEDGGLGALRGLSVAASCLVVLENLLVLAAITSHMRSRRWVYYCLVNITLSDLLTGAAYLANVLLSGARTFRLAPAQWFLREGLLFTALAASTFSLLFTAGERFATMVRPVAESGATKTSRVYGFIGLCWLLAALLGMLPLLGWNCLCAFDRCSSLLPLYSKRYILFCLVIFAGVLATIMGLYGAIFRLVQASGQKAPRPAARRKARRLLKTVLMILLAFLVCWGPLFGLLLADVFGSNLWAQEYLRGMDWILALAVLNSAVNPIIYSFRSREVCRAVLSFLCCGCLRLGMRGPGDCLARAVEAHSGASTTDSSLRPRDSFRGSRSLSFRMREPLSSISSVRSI
Description: Tango β-arrestin recruitment luciferase assay, Tango-hS1P4-CHO. The format is cell-based. A digest of the protocol: as §1

In experiment [2] the test system is hS1P4. The description is as above. Conditions: S1PR4 versus S1PR1, β-arrestin recruitment EC50. The format is cell-based, human. An outline of the steps: as §1
Another experiment has as its target T3, S1PR2 (Homo sapiens, UniProt O95136).
T3 construct: expressed in transfected cells
Description: FLIPR assay, S1PR2-CHO cell line. The format is cell-based. The conditions noted are these: mean ± SD.

The target in a further experiment is T4, S1PR5 (Homo sapiens, UniProt Q9H228).
T4 construct: expressed in transfected cells
T4 sequence (Q9H228 whole entry, species assumed): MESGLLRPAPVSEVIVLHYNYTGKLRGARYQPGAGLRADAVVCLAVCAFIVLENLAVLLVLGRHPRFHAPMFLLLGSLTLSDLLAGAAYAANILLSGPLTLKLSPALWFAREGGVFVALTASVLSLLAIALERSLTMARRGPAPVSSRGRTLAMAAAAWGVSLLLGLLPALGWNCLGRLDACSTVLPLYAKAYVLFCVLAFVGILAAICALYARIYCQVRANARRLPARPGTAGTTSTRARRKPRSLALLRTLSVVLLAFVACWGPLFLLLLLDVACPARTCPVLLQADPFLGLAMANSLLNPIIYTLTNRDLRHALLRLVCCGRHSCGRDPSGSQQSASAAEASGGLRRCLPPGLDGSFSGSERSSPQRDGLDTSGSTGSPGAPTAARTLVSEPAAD
Description: FLIPR assay, S1PR5-CHO cell line. The format is cell-based. Conditions: mean ± SD.

A further experiment has as its system MRL/lpr mice. Kind of experiment: Systemic lupus erythematosus model, MRL/lpr mice. The format is in vivo. The conditions noted are these: for renal pathology (HE and PAS staining): 8 weeks of treatment. As for the experimental part:
Based on this, the inventor conducted efficacy evaluation on this compound using MRL/lpr mice, a classic model of lupus erythematosus.
The efficacy of Compound 67 was evaluated using MRL/Lpr lupus model mice.
The specific groups were as follows: MPJ control group, model group, positive drug Cenerimod group at 0.5 mg/kg, and Compound 67 at two doses: 1 mg/kg and 3 mg/kg.

For a further experiment, the system named is mouse. Description: DSS mouse acute UC model, dosing concurrent with modeling (Example 7). The format is in vivo. Conditions: intragastric, Compound 30 0.3, 1, 3 mg/kg, Compound 67 1 mg/kg; for colon length: positive control RPC1063 1 mg/kg. Here is the method:
Mouse models were established using DSS, with the protocol being 2.5% DSS in drinking water for 5 days followed by ad libitum normal drinking water for 2 days. Intragastric administration was performed concurrently with modeling, and RPC1063 was used as the positive control drug. The specific groupings were as follows: RPC1063 was administered intragastrically at 1 mg/kg. Compound 30 was tested at three doses: 0.3 mg/kg, 1 mg/kg, and 3 mg/kg. Compound 38 was administered at 5 mg/kg, while Compounds 53, 67, 77, and 80 were each administered at 1 mg/kg.

In another experiment the test system is BALB/c mice. Kind of experiment: Imiquimod-induced mouse psoriasis model. The format is in vivo. From the text:
The imiquimod-induced mouse psoriasis model is a commonly used model for psoriasis research. This model uses the topical immune modulator imiquimod (IMQ) to induce lesions similar to human psoriasis on the skin of mice.
• Mice: Female BALB/c mice, aged 6-8 weeks. • Imiquimod cream: 5% IMQ cream. • Experimental Procedures • Animal preparation: Mice were acclimated to the laboratory environment for at least one week.
Random grouping: Generally, 5 mice were included in each group. Specifically, the groups were as follows: adalimumab injection group for positive control; compounds 30 and 67 administered by gavage, divided into 3 dosage groups: 0.3, 1, and 3 mg/kg.
The hair on the backs of the mice in each group was shaved with a razor, covering an area of approximately 2 × 3 cm^2.
5% IMQ cream was applied daily to the shaved area on the mouse backs at a dose of 62.5 mg of IMQ cream for 6-7 consecutive days. Skin reactions of the mice were observed after 7 days, including erythema, scaling, and skin thickening.

The mark [3] stands for this setting: S1PR4, Tango-S1PR4-CHO-K1 cells, mean ± SD, read-out: EC50.
The mark [4] stands for this setting: β-arrestin recruitment, 20 h drug treatment, top 45 µM, 9 serial 5-fold dilutions, positive control 25 µM BAF-312, read-out: Tango-hS1P4-CHO EC50.
The mark [5] stands for this setting: gavage 0.3, 1 and 3 mg/kg, after 7 days of IMQ.
Where [6] appears, read: high dose of 3 mg/kg, compared with adalimumab.
Setting [7] is: Compound 67 1 mg/kg and 3 mg/kg, 8 weeks, vs SLE model group.

Entries after “also recorded” stand apart in the source; their conditions may differ. Like-named read-outs stand apart in the source and are kept apart here.

T3 sequence (O95136 whole entry, species assumed): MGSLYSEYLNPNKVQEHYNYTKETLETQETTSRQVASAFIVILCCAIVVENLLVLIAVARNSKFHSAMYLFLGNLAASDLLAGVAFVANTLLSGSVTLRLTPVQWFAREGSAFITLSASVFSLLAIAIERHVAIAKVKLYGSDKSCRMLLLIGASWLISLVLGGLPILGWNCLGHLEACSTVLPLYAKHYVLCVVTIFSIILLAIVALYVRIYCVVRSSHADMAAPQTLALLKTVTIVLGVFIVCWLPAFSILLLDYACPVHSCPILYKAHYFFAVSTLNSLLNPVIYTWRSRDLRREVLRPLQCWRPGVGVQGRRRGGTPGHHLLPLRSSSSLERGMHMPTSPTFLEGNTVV
T1 sequence (P21453 whole entry): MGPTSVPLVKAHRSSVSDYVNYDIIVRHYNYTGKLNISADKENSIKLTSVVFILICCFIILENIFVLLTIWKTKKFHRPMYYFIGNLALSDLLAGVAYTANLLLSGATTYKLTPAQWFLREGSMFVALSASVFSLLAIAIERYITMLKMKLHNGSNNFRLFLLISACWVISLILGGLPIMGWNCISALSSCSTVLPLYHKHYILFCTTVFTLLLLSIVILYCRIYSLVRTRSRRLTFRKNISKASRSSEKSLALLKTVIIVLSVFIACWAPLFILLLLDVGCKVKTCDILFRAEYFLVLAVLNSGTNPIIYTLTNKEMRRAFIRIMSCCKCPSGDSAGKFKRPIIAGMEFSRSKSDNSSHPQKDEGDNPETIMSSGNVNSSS

Consider `CCc1cc(/C(C)=N/OCc2ccc(-c3ccccc3)c(C)c2)ccc1CN1CC[C@H](C(=O)O)C1` [Compound 30], for which the EC50 on hS1P1 is 87.6 ± 3.35 nM; on hS1P4 [1] (setting [3]) it was 9.09 ± 0.67 nM; at hS1P4 [1] (setting [4]) it was 9.09 nM; on S1PR2, “no agonist activity”; on S1PR2 (read-out: EC50) it was greater than 10000 nM; on S1PR5, “no agonist activity”. Further, the EC50 at S1PR5 (read-out: EC50) was greater than 10000 nM. For the same compound, the “selectivity over S1PR1” value with hS1P4 [2] is “approximately 10 fold”. For the same compound, the “renal pathology (HE and PAS staining)” value with MRL/lpr mice (vs SLE model group) was “improves renal pathological injury; also recorded: renal interstitial inflammatory cell infiltration was significantly reduced”. In addition, the “serum anti-nuclear / anti-double-stranded DNA antibody level” value in the experiment on MRL/lpr mice (8 weeks, vs SLE model group) was “dose-dependently reduces; also recorded: markedly decreased”. Also, in the experiment with MRL/lpr mice (SLE mice, vs model), the subcutaneous nodules entry is “dose-dependently reduces; also recorded: significantly reduced subcutaneous nodules”. Besides, the “body weight gain and mortality” value in the experiment with MRL/lpr mice (continuous administration for 8 weeks, vs SLE model group) was “reduces the mortality rate; also recorded: prevented body weight gain and reduced mortality in a dose-dependent manner”. Moreover, the “Th1- and Th17-positive cells in spleen, Th1/Th2 and Th17/Treg ratios” value in the experiment on MRL/lpr mice (vs SLE model group) is “regulates the number and ratio of T lymphocytes; also recorded: significantly reduce the number of Th1- and Th17-positive cells”. Moreover, the DAI scores entry with mouse is listed as “favorable effects”. Also, the body weight result in the experiment with mouse is on record as “concentration-dependent recovery”. The colon length entry in the experiment with mouse is on record as “significant efficacy”. Further, the “skin reactions (erythema, scaling, skin thickening)” value is “significant alleviating effects at all concentrations in a dose-dependent manner” in the experiment on BALB/c mice (setting [5]) and “therapeutic effects similar to those of adalimumab” in the experiment with BALB/c mice (setting [6]).
For `CCc1cc(/C(C)=N/OCc2ccc(-c3cnc(F)cn3)c(C)c2)ccc1CN1CC[C@H](C(=O)O)C1` [Compound 67, (S, E)-1-(2-ethyl-4-(1-(((4-(5-fluoropyrazin-2-yl)-3-methylbenzyl)oxy)imino)ethyl)benzyl)pyrrolidine-3-carboxylic acid], the EC50 was 195 ± 16 nM on hS1P1; 1.8 ± 0.43 nM on hS1P4 [1] (setting [3]); 1.8 nM on hS1P4 [1] (setting [4]); greater than 10000 nM on S1PR2 (read-out: EC50); 3740 ± 221 nM at S1PR5 (read-out: EC50). The “selectivity over S1PR1” value in the experiment on hS1P4 [2] is “more than 100 fold”. Further, in the experiment on MRL/lpr mice (vs SLE model group), the “renal pathology (HE and PAS staining)” value is “inflammatory cell infiltration was significantly reduced”. The “serum anti-nuclear / anti-double-stranded DNA antibody level” value with MRL/lpr mice (8 weeks, vs SLE model group) was “significantly reduces the anti-double-stranded DNA antibody level; also recorded: significantly reduce the level of anti-double-stranded DNA antibody”. The serum creatinine level entry in the experiment with MRL/lpr mice (setting [7]) is listed as “significantly reduce the serum creatinine level”. Moreover, the “urinary microalbumin level (MAU)” value in the experiment on MRL/lpr mice (setting [7]) is “significantly reduced the urinary microalbumin level”. Further, the “Th1- and Th17-positive cells in spleen, Th1/Th2 and Th17/Treg ratios” value in the experiment on MRL/lpr mice (vs SLE model group) was “regulates the number and ratio of T lymphocytes; also recorded: significantly reduce the number of Th1- and Th17-positive cells”. The DAI scores result in the experiment with mouse is “favorable effects”. In the experiment with mouse, the body weight entry was “less body weight loss”. In addition, the colon length entry in the experiment on mouse is listed as “significant efficacy”. Further, the “skin reactions (erythema, scaling, skin thickening)” value is recorded as “significant alleviating effects at all concentrations in a dose-dependent manner” with BALB/c mice (setting [5]) and “therapeutic effects similar to those of adalimumab” with BALB/c mice (setting [6]).
